Laboratory results: US20210348164A1, “ENDOGENOUS CYTOPLASMIC ALU COMPLEMENTARY DNA IN AGE-RELATED MACULAR DEGENERATION” (University of Virginia Patent Foundation, priority 2018, published 2021)
“Also recorded” adds a separate entry of the source.

Columns and labels:
[1] = test system: Alu cDNA in primary human RPE cells; experiment: Alu cDNA in primary human RPE cells (Alu c-PCR, real-time PCR, in situ hybridization, equator blotting); type: cell-based; settings: primary human RPE cells exposed to Alu RNA, heat shock, or DICER1 AS; NNRTIs at high doses
Procedure: Cell culture and transfection. Primary mouse and human RPE cells were isolated as previously described (Kerur et al., 2018). All cells were maintained at 37° C. in a 5% CO2 environment. Mouse RPE cells were cultured in DMEM supplemented with 20% FBS and penicillin/streptomycin antibiotics at standard concentrations; primary human RPE cells were maintained in DMEM supplemented with 10% FBS and antibiotics. The human RPE cell line ARPE19 was cultured as previously described (Kerur et al., 2018) and maintained in DMEM-F12 containing penicillin/streptomycin, Fungizone, and gentamicin. HEK293T cells were cultured in DMEM with 10% fetal bovine serum (FBS) with 100 U/ml penicillin/streptomycin and 2 mM L-glutamine. Primary wild-type mouse bone marrow-derived macrophages (BMDMs) were isolated, and cultured in Iscove's Modified Dulbecco's Medium (IMDM) supplemented with 30% L929 supernatant containing macrophage-stimulating factor, nonessential amino acids, sodium pyruvate, 10% FBS and antibiotics, 50 μM β-mercaptoethanol (Seo et al., 2015), and serum starved in IMDM with 1% FBS and 100 U/ml penicillin/streptomycin overnight prior to LPS stimulation. NRTIs or NNRTIs were added 30 minutes prior to LPS stimulation and again 30 minutes prior to ATP activation. LPS (100 ng/mL) was added for 3-4 hours prior to the addition of ATP. Cell lysates were collected 30 minutes after addition of ATP (5 mM). Primary human subcutaneous pre-adipocytes (Catalogue No. PCS-210-010, ATCC, Manassas, Va., United States of America) and primary human dermal fibroblasts (Catalogue No. PCS-201-012, ATCC) were grown in fibroblast basal medium with fibroblast growth kit for low serum (ATCC).
Umbilical artery vascular smooth muscle cells (Catalogue No. CC-2579, Lonza, Morristown, N.J., United States of America) were grown in SMGM™-2 Smooth Muscle Growth Medium-2 BULLETKIT™ (Lonza). Primary human skeletal myoblasts (Catalogue No. A11440, Thermo Fisher Scientific) were grown in DMEM with 2% horse serum. Primary human epidermal keratinocytes (Catalogue NO. CO215C, Thermo Fisher Scientific) were grown in EPILIFE® Medium (Thermo Fisher Scientific). Human umbilical vein endothelial cells (HUVEC) were grown in HUVEC EGM™-2 Media (Lonza). Primary human peripheral blood mononuclear cells (Catalogue NO. PCS-800-011, ATCC) were directly used without culture for experiments. RPMI 1640 medium with 10% human serum with human GM-CSF (Miltenyi Biotec Inc., Auburn, Calif., United States of America) was used as media during the experiment. Transfections were performed according to the manufacturer's instructions (LIPOFECTAMINE® 2000, Invitrogen). For transfection of primary human peripheral blood mononuclear cells, HiPerFect Transfection Reagent (Qiagen) was used as previously described (Troegeler et al., 2014). NRTIs were administered 60 minutes before transfection and added again upon replacement of media at 8 hours. To induce acid injury or osmotic stress, primary human RPE cells were treated with HCl (pH 4.0 media) or H2O for 30 minutes, 1 hour, and 2 hours at 37° C. in 5% CO2, respectively. NIH3T3 Tet-ON cells were cultured in DMEM with 10% tetracycline-free fetal bovine serum (FBS) with 100 U/ml penicillin/streptomycin. NIH3T3 Tet-ON cells were transfected with pLD401 (see Taylor et al., 2013; gift of J. D. Boeke, Institute for Systems Genetics, NYU Langone Health, New York, New York, United States of America) and human L1 ORF1p abundance was monitored after 24 hours of doxycycline induction. […]

[2] = test system: Alu G25C RNA-induced RPE degeneration; experiment: Alu G25C RNA-induced RPE degeneration in wild-type mice; type: in vivo, mouse; settings: WT mice; subretinal Alu G25C RNA
[3] = test system: reverse transcriptase activity of cytoplasmic fractions of F9 cells; experiment: In vitro reverse transcriptase activity of cytoplasmic fractions (Alu RNA-templated, Alu-specific qPCR); type: biochemical, mouse
Procedure: In vitro reverse transcriptase (RT) activity. In vitro reverse transcriptase (RT) activity in nuclear and cytoplasmic protein fractions was assessed using an Alu RNA-templated reaction. The RT reaction was carried out in a 20 μl reaction mix containing Alu RNA template (10 ng); Alu primer ([…]); dNTPs mix; cytoplasmic or nuclear protein, and Quantiscript RT Buffer (Qiagen). The reaction mixture was incubated at 42° C. for 30 minutes. The resulting cDNA was quantified by qPCR using Alu RNA template-specific primers. The reaction to evaluate self-priming activity of Alu RNA was carried out in the absence of priming oligos in a 20 μl reaction mix containing: Alu RNA with 3′-U tail; dNTP mix; cytoplasmic protein from mouse RPE cells; and Quantiscript RT Buffer (Qiagen) as described above. The resulting cDNA product was quantified by qPCR using Alu RNA template-specific primers. Alu RNA tailed on the 3′ end with chain terminator dideoxy thymidine base (ddTTP) was generated using TdT (New England Biolabs (NEB)) according to the manufacturer's instructions. Alu RNA tailed on the 3′ end with chain terminator cordycepin tri-phosphate was generated using PAP (NEB) according to the manufacturer's instructions.

CC(C)Nc1cccnc1N1CCN(C(=O)c2cc3cc(NS(C)(=O)=O)ccc3[nH]2)CC1 [DLV, delavirdine]
Alu cDNA induction [1]: prevented Alu cDNA synthesis; also recorded: reduced

O=C1Nc2ccc(Cl)cc2[C@@](C#CC2CC2)(C(F)(F)F)O1 [EFV, efavirenz]
Alu cDNA induction [1]: prevented Alu cDNA synthesis; also recorded: reduced

Cc1ccnc2c1NC(=O)c1cccnc1N2C1CC1 [NVP, nevirapine]
Alu cDNA induction [1]: did not prevent Alu cDNA synthesis

L1 siRNA: siRNA targeting L1; cholesterol-conjugated mouse L1 siRNA (SEQ ID NOs: 48 and 49) in vivo, human L1 siRNA sequences in human cells (chain 1 ACUAUUACUCUGAUACCTT; chain 2 UGUACUAAGGUCAAAUCTT; cholesterol conjugated, position not given here)
Alu G25C RNA-induced RPE degeneration [2]: prevented Alu G25C RNA-induced RPE degeneration
Alu cDNA induction [1]: prevented the production of Alu cDNA; also recorded: reduced
Alu cDNA formation from Alu RNA (reverse transcriptase activity) [3]: reduced Alu cDNA production; also recorded: reduced Alu cDNA formation
